# Results as given in US11590139B2, “Substituted aminopurine compounds, compositions thereof, and methods of treatment therewith” (Signal Pharmaceuticals, LLC, priority 2014, dated 2023).
# pIC50: −log10 of the molar value.
# Test system: Lox-IMVI melanoma cell line
# Experiment: Lox-IMVI anti-proliferative assay (growth inhibition, Cell Titer-Glo)
# Format: cell-based, human
# Details: Homo sapiens; IC50 activity level in the cell-based Lox-IMVI anti-proliferative assay; read-out: Activity
# Summary of the method: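 Luminescence from cellular ATP measured viability at compound addition and again after 72 h of exposure (37 °C, 5% CO2, RPMI + 10% FBS). Doses spanned 0.5 nM to 10 μM in ten 3-fold steps with 0.2% DMSO. Values were fitted as % of DMSO-treated cells by sigmoidal dose-response.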
row,SMILES,pIC50
1,"NC(=O)[C@H]1CC[C@@H](n2c(Nc3c(F)cccc3Cl)nc3cnc(NC4CC(F)(F)C4)nc32)CC1 [Example 225, (1s,4s)-4-(8-(2-chloro-6-fluorophenylamino)-2-(3,3-difluorocyclobutylamino)-9H-purin-9-yl)cyclohexanecarboxamide]",< 6.00
2,"NC(=O)[C@H]1CC[C@@H](n2c(Nc3c(Cl)cc(F)cc3Cl)nc3cnc(NC4CC5(COC5)C4)nc32)CC1 [Example 193, (1s,4s)-4-(2-(2-oxaspiro[3.3]heptan-6-ylamino)-8-(2,6-dichloro-4-fluorophenylamino)-9H-purin-9-yl)cyclohexanecarboxamide]",< 6.00
3,"CC[C@@H](CO)Nc1ncc2nc(Nc3cccc(Cl)c3F)n([C@H]3CC[C@@H](C(N)=O)CC3)c2n1 [Example 150, (1R,4s)-4-(8-(3-chloro-2-fluorophenylamino)-2-((S)-1_ hydroxybutan-2-ylamino)-9H-purin-9-yl)cyclohexanecarboxamide]",< 6.00
4,"CC[C@H](C)Nc1ncc2nc(Nc3c(Cl)cccc3Cl)n([C@H]3CC[C@@H](C(N)=O)CC3)c2n1 [Example 336, (1R,4s)-4-(2-(sec-butylamino)-8-(2,6-dichlorophenylamino)-9H-purin-9-yl)cyclohexanecarboxamide]",< 6.00
5,"NC(=O)[C@H]1CC[C@@H](n2c(Nc3c(Cl)cc(Cl)cc3Cl)nc3cnc(NC4CCC(F)(F)CC4)nc32)CC1 [Example 88, (1s,4s)-4-(2-(4,4-difluorocyclohexylamino)-8-(2,4,6-trichlorophenylamino)-9H-purin-9-yl)cyclohexanecarboxamide]",6.00 to 6.30
6,"NC(=O)[C@H]1CC[C@@H](n2c(Nc3c(F)cc(Cl)cc3Cl)nc3cnc(NCC4(CO)CC4)nc32)CC1 [Example 206, (1s,4s)-4-(8-(2,4-dichloro-6-fluorophenylamino)-2-((1-(hydroxymethyl)cyclopropyl)methylami-no)-9H-purin-9-yl)cyclohexanecarboxamide]",< 6.00
7,"NC(=O)[C@H]1CC[C@@H](n2c(Nc3cccc(Cl)c3F)nc3cnc(NC4CCC(F)(F)CC4)nc32)CC1 [Example 237, (1s,4s)-4-(8-(3-chloro-2-fluorophenylamino)-2-(4,4-difluorocyclohexylamino)-9H-purin-9-yl)cyclohexanecarboxamide]",< 6.00
8,"CC[C@@H](CO)Nc1ncc2nc(Nc3c(F)cccc3Cl)n([C@H]3CC[C@@H](C(N)=O)CC3)c2n1 [Example 144, (1R,4s)-4-(8-(2-chloro-6-fluorophenylamino)-2-((S)-1-hydroxybutan-2-ylamino)-9H-purin-9-yl)cyclohexanecarboxamide]",< 6.00
9,"CC(C)(C)OC(=O)N1CC[C@H](Nc2ncc3nc(Nc4c(F)cccc4F)n([C@H]4CC[C@@H](C(N)=O)CC4)c3n2)[C@H](F)C1 [Example 128, (3R,4S)-tert-butyl 4-(9-((1s,4R)-4-carbamoylcyclohexyl)-8-(2,6-difluorophenylamino)-9H-purin-2-ylamino)-3-fluoropiperidine-1-carboxylate]",< 6.00

# Now from value to molecule:
row,pIC50,SMILES
1,< 6.00,"NC(=O)[C@H]1CC[C@@H](n2c(Nc3c(Cl)cc(Cl)cc3Cl)nc3cnc(N[C@H]4CC[C@H](O)CC4)nc32)CC1 [Example 78, (1s,4s)-4-(2-((1r,4r)-4-hydroxycyclohexylamino)-8-(2,4,6-trichlorophenylamino)-9H-purin-9-yl)cyclohexanecarboxamide]"
2,< 6.00,"NC(=O)[C@H]1CC[C@@H](n2c(Nc3c(F)cc(F)cc3Cl)nc3cnc(N[C@@H]4CCC[C@H](O)C4)nc32)CC1 [Example 351, (1S,4s)-4-(8-(2-chloro-4,6-difluorophenylamino)-2-((1R,3S)-3-hydroxycyclohexylamino)-9H-purin-9-yl)cyclohexanecarboxamide]"
3,6.00 to 6.30,"NC(=O)[C@H]1CC[C@@H](n2c(Nc3c(F)cc(Cl)cc3F)nc3cnc(N[C@@H]4CCC[C@H]4O)nc32)CC1 [Example 257, (1S,4s)-4-(8-(4-chloro-2,6-difluorophenylamino)-2-((1R,2R)-2-hydroxycyclopentylamino)-9H-purin-9-yl)cyclohexanecarboxamide]"
4,< 6.00,"NC(=O)[C@H]1CC[C@@H](n2c(Nc3c(F)ccc(Cl)c3F)nc3cnc(N[C@@H]4CCC[C@H]4O)nc32)CC1 [Example 259, (1S,4s)-4-(8-(3-chloro-2,6-difluorophenylamino)-2-((1R,2R)-2-hydroxycyclopentylamino)-9H-purin-9-yl)cyclohexanecarboxamide]"

# Same assay, conditions: Homo sapiens; Lox-IMVI anti-proliferative assay, IC50 activity level; read-out: Activity
row,SMILES,pIC50
1,"COC(=O)N1CCC[C@@H](Nc2ncc3nc(Nc4c(Cl)cc(F)cc4Cl)n([C@H]4CC[C@@H](C(N)=O)CC4)c3n2)C1 [Example 410, (R)-methyl 3-(9-((1s,4S)-4-carbamoylcyclohexyl)-8-(2,6-dichloro-4-fluorophenylamino)-9H-purin-2-ylamino)piperidine-1-carboxylate]",< 6.00
2,"C[C@@H](CO)Nc1ncc2nc(Nc3c(Cl)cc(C(F)(F)F)cc3Cl)n([C@H]3CC[C@](C)(C(N)=O)CC3)c2n1 [Example 480, (1S,4r)-4-(8-(2,6-dichloro-4-(trifluoromethyl)phenylamino)-2-((S)-1-hydroxypropan-2-ylamino)-9H-purin-9-yl)-1-methylcyclohexanecarboxamide]",< 6.00
3,"C[C@]1(C(N)=O)CC[C@H](n2c(Nc3c(F)cc(Cl)cc3Cl)nc3cnc(NC4CCC(F)(F)CC4)nc32)CC1 [Example 478, (1r,4r)-4-(8-(2,4-dichloro-6-fluorophenylamino)-2-(4,4-difluorocyclohexylamino)-9H-purin-9-yl)-1-methylcyclohexanecarboxamide]",< 6.00
4,"COC(=O)N1CCCC(Nc2ncc3nc(Nc4c(F)ccc(Cl)c4F)n([C@H]4CC[C@@H](C(N)=O)CC4)c3n2)C1 (stereo partly drawn) [Example 413, (R)-methyl 3-(9-((1s,4S)-4-carbamoylcyclohexyl)-8-(3-chloro-2,6-difluorophenylamino)-9H-purin-2-ylamino)piperidine-1-carboxylate]",< 6.00
5,"N#Cc1cc(F)c(Nc2nc3cnc(NC4CC5(COC5)C4)nc3n2[C@H]2CC[C@@H](C(N)=O)CC2)c(Cl)c1 [Example 572, (1s,4s)-4-(2-(2-oxaspiro[3.3]heptan-6-ylamino)-8-(2-chloro-4-cyano-6-fluorophenylamino)-9H-purin-9-yl)cyclohexanecarboxamide]",6.00 to 6.30

# Second part, the molecule after the results:
row,pIC50,SMILES
1,< 6.00,"NC(=O)[C@H]1CC[C@@H](n2c(Nc3c(F)cc(F)cc3F)nc3cnc(N[C@@H]4CCC[C@@H](O)C4)nc32)CC1 [Example 418, (1S,4s)-4-(2-((1R,3R)-3-hydroxycyclohexylamino)-8-(2,4,6-trifluorophenylamino)-9H-purin-9-yl)cyclohexanecarboxamide]"
2,6.30 to 6.60,"C[C@]1(C(N)=O)CC[C@@H](n2c(Nc3c(F)cc(Cl)cc3F)nc3cnc(N[C@@H]4CCC[C@H](O)C4)nc32)CC1 [Example 566, (1S,4s)-4-(8-(4-chloro-2,6-difluorophenylamino)-2-((1R,3S)-3-hydroxycyclohexylamino)-9H-purin-9-yl)-1-methylcyclohexanecarboxamide]"
3,< 6.00,"NC(=O)[C@H]1CC[C@@H](n2c(Nc3c(F)cc(F)cc3F)nc3cnc(N[C@@H]4CCCC[C@H](O)C4)nc32)CC1 [Example 434, (1S,4s)-4-(2-((1R,3S)-3-hydroxycycloheptylamino)-8-(2,4,6-trifluorophenylamino)-9H-purin-9-yl)cyclohexanecarboxamide]"
4,< 6.00,"COC(=O)N1CCC[C@@H](Nc2ncc3nc(Nc4c(F)cc(F)cc4Cl)n([C@H]4CC[C@@H](C(N)=O)CC4)c3n2)C1 [Example 407, (R)-methyl 3-(9-((1s,4S)-4-carbamoylcyclohexyl)-8-(2-chloro-4,6-difluorophenylamino)-9H-purin-2-ylamino)piperidine-1-carboxylate]"

# Same assay, conditions: Homo sapiens; Lox-IMVI anti-proliferative assay, cell-based; read-out: Activity (IC50 activity level)
row,pIC50,SMILES
1,> 6.60,"C[C@]1(C(N)=O)CC[C@@H](n2c(Nc3c(Cl)cc(Cl)cc3Cl)nc3cnc(N[C@H]4CCOC[C@@H]4F)nc32)CC1 [Example 802, (1R,4s)-4-(2-(((3R,4S)-3-fluorotetrahydro-2H-pyran-4-yl)amino)-8-((2,4,6-trichlorophenyl)amino)-9H-purin-9-yl)-1-methylcyclohexane-1-carboxamide]"

# Same assay, conditions: Homo sapiens; Lox-IMVI melanoma cell line, anti-proliferative assay; read-out: Activity (IC50 activity level)
row,SMILES,pIC50
1,"C[C@]1(C(N)=O)CC[C@@H](n2c(Nc3c(Cl)cc(F)cc3Cl)nc3cnc(N[C@@H]4CC[C@@H](O)C4)nc32)CC1 [Example 638, (1S,4s)-4-(8-(2,6-dichloro-4-fluorophenylamino)-2-((1R,3R)-3-hydroxycyclopentylamino)-9H-purin-9-yl)-1-methylcyclohexanecarboxamide]",> 6.60
2,"C[C@]1(C(N)=O)CC[C@@H](n2c(Nc3c(Cl)cc(Cl)cc3Cl)nc3cnc(N[C@H]4CC[C@H](O)C4)nc32)CC1 [Example 645, (1R,4s)-4-(2-((1S,3S)-3-hydroxycyclopentylamino)-8-(2,4,6-trichlorophenylamino)-9H-purin-9-yl)-1-methylcyclohexanecarboxamide]",6.00 to 6.30
3,"N#Cc1ccc(Nc2nc3cnc(NC4CCC(F)(F)CC4)nc3n2[C@H]2CC[C@@H](C(N)=O)CC2)c(Cl)c1Cl [Example 695, (1s,4s)-4-(8-(2,3-dichloro-4-cyanophenylamino)-2-(4,4-difluorocyclohexylamino)-9H-purin-9-yl)cyclohexanecarboxamide]",< 6.00

# The next lines start with the values.
row,pIC50,SMILES
1,> 6.60,"N#Cc1cc(F)c(Nc2nc3cnc(N[C@@H]4CCC(F)(F)C4)nc3n2[C@H]2CC[C@@H](C(N)=O)CC2)c(Cl)c1 [Example 698, (1S,4s)-4-(8-(2-chloro-4-cyano-6-fluorophenylamino)-2-((R)-3,3-difluorocyclopentylamino)-9H-purin-9-yl)cyclohexanecarboxamide]"
2,> 6.60,"NC(=O)[C@H]1CC[C@@H](n2c(Nc3c(F)cc(Cl)cc3Cl)nc3cnc(N[C@H]4CCOC[C@H]4F)nc32)CC1 [Example 714, (1R,4s)-4-(8-(2,4-dichloro-6-fluorophenylamino)-2-((3S,4S)-3-fluorotetrahydro-2H-pyran-4-ylamino)-9H-purin-9-yl)cyclohexanecarboxamide]"
